The term IC50 denotes the concentration at which inhibition is half-maximal.

Sequence of Mitogen-activated protein kinase 8 (P45983 whole entry): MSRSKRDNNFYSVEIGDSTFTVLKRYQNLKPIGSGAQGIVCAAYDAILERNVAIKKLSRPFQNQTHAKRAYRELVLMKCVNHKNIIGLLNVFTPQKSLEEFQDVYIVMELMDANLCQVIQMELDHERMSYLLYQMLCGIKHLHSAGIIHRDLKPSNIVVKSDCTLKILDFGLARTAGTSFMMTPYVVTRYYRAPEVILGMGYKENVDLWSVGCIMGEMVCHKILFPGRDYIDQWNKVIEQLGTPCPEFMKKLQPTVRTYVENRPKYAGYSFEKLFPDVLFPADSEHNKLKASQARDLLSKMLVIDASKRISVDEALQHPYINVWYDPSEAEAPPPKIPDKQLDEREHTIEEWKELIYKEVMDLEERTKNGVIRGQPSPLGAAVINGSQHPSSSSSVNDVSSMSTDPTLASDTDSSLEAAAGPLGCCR

This assay has as its target Mitogen-activated protein kinase 8 (Homo sapiens, UniProt P45983). Put plainly: In Vitro Enzyme Assay: In vitro JNK1 assay.
Compound `CC(C)(O)CNC(=O)c1ccc(C(=O)NCc2cn(-c3ccccc3)c3cc(Cl)ccc3c2=O)cc1` displayed a concentration for half-maximal inhibition (IC50) of 220 nM.
For `O=C(NCc1cn(-c2ccccc2F)c2cc(F)ccc2c1=O)c1cnn(-c2ccccc2)c1` the value was 40 nM; for `COC(=O)c1c(CNC(=O)c2cnc(N3CCOCC3)s2)c(=O)c2ccc(Cl)cc2n1-c1ccccc1`, 8 nM.

(Values after ChEMBL document CHEMBL3638467, “Aminomethyl quinolone compounds” (2013).)
